Source: patent US12122787B2, “Fused pyridone compound, and preparation method therefor and use thereof” (SHANGHAI JEMINCARE PHARMACEUTICALS CO., LTD, priority 2019, dated 2024)
Like-named read-outs stand apart in the source and are kept apart here.

Key:
Assay type in all cases: cell-based
[1] = tested on: MIA PaCa2 cells expressing KRAS-G12C; assay: Growth inhibition of tumor cell line expressing KRAS-G12C (Cell Titer Glo), MIA PaCa2; conditions: MIA-Paca2, 72 hours
Procedure: (§1) The ability of the compounds of the present disclosure to inhibit the growth of cells expressing KRAS-G12C was evaluated by measuring the cell viability and calculating the GI50 values.
(§2) The tumor cell line NCI-H358 (ATCC catalogue number CRL-5807) expressing KRAS-G12C was cultured in RPMI medium supplemented with 10% fetal bovine serum and penicillin/streptomycin, and the tumor cell line MIA PaCa2 (ATCC CRL-1420) expressing KRAS-G12C was cultured in DMEM medium supplemented with 10% fetal bovine serum, 2.5% horse serum, and penicillin/streptomycin.
(§3) Cells NCI-H358 and MIA-Paca2 were inoculated into black transparent bottom 384-well plate (PerkinElmer catalogue number 6007460) with cell density of 1000 and 800 respectively, and the cells were allowed to adhere to the wall overnight (8-12 hours). After the cells adhered to the wall, the experimental group was added with the compound of the present disclosure diluted 5 times the concentration of the working solution (final concentration containing 0.1% dimethyl sulfoxide, i.e. DMSO); the control group was added with the same dilution as the experimental group (final concentration containing 0.1% DMSO). After 72 hours, Cell Titer Glo reagent (Promega catalogue number G7572) was used to detect ATP content according to the instruction method to determine the amount of cell proliferation. The brief operation steps were as follows: the cell plate was taken out and kept at normal temperature for equilibrium for 30 minutes; Cell Titer Glo reagent with the same volume as the culture was added; the culture plate was placed on a shaker for shaking and cracking for 2 minutes; the culture plate was left to stand at room temperature for 10 minutes; then the light signal value was read by microplate reader EnVision (PerkinElmer).
(§4) Data from all experimental groups were used to calculate the respective percent inhibition using the DMSO group, and the GI50 was calculated using the data processing software GraphPad to analyze the inhibition rates produced by the 9 compound dose concentrations diluted at ⅓-fold ratio.

[2] = tested on: NCI-H358 cells expressing KRAS-G12C; assay: Growth inhibition of tumor cell line expressing KRAS-G12C (Cell Titer Glo), NCI-H358
Procedure: as §1, §2, §3, §4

[3] = tested on: phosphorylated ERK (Thr202/Tyr204) in NCI-H358 cells expressing mutant RAS(G12C); assay: Inhibition of RAS-mediated signal transduction: phosphorylated ERK ELISA in NCI-H358 cells; conditions: NCI-H358 cells, 2 hours of treatment, pERK normalized by Janus Green B, read-out: p-ERK IC50 (NCI H358)
Procedure: The cells were treated with or without the compound of the present disclosure (dimethyl sulfoxide, DMSO), and the final concentration of DMSO was guaranteed to be 0.5%. After 2 hours of treatment, the medium was removed and 4% paraformaldehyde (Beyotime catalog number E672002-0100) was added and left to stand for 20 minutes. Cells were washed with PBS after fixation and incubated with precooled methanol for 10 min to permeabilize the cell membrane.
The level of phosphorylated ERK was detected using an enzyme linked immunosorbent assay (ELISA) method. […] The plates were washed 5 times with PBS containing 0.05% Tween 20. […] The reaction was stopped by adding 1 mol/L H2SO4, and the OD value was read at 450 nm by EnVision (PerkinElmer).
The total number of cells per well was detected by Janus Green B staining method. After detecting the level of phosphorylated ERK, the 96-well plate was washed with PBS until colorless, and 0.1% Janus Green B (Abcam catalogue number ab111622) was added to incubate for 10 minutes. After the 96-well plate was washed with double distilled water, 0.1 mol/L HCl was added, then the mixture was shaked and incubated for 10 minutes. The OD value was read at 595 nm by EnVision (PerkinElmer).
The signal of pERK (Thr202/Tyr204) was normalized by the signal value of Janus Green B, and the inhibition percentage after drug treatment relative to DMSO reference was calculated. The percentage values were fitted by a four-parameter dose-response curve and generated IC50 values.

Row | GI50 ([1]; Homo sapiens, MIA PaCa-2, 72 h) | GI50 ([2]; Homo sapiens, NCI-H358, 72 h) | GI50 [1] | GI50 ([2]; NCI-H358, 72 hours) | SMILES | IC50 ([3]; Homo sapiens, NCI-H358, 2 h) | IC50 [3]
1 | – | – | 0.166 µM | 0.027 µM | C=CC(=O)N1C[C@@H]2COc3c(c4cc(F)c(-c5c(O)cccc5F)c(F)c4n(-c4c(C)ccnc4C(C)C)c3=O)N2C[C@H]1C (atropisomer, axis not shown) [Compound 3B-1] | – | 0.026 µM
2 | – | – | 0.085 µM | 0.028 µM | C=CC(=O)N1C[C@@H]2C(=O)Nc3c(c4cc(F)c(-c5c(O)cccc5F)c(F)c4n(-c4c(C)ccnc4C(C)C)c3=O)N2C[C@H]1C [Compound 22A-1] | – | 0.06 µM
3 | – | – | 0.117 µM | 0.085 µM | C=CC(=O)N1C[C@@H]2C(=O)N(CCN(C)C)c3c(c4cc(Cl)c(-c5c(F)cccc5OC)c(F)c4n(-c4c(C)ccnc4C(C)C)c3=O)N2C[C@H]1C (atropisomer, axis not shown) [Compound 27D] | – | 0.124 µM
4 | – | – | 0.024 µM | 0.01 µM | C=CC(=O)N1C[C@@H]2C(=O)Nc3c(c4cc(F)c(-c5c(O)cccc5F)c(F)c4n(-c4c(C)ccnc4C(C)C)c3=O)N2C[C@H]1C [Compound 22A] | – | 0.016 µM
5 | 0.037 µM | 0.022 µM | – | – | C=CC(=O)N1C[C@@H]2CN(C)c3c(c4cc(Cl)c(-c5c(O)cccc5F)nc4n(-c4c(C)ccnc4C(C)C)c3=O)N2C[C@H]1C [Compound 8] | 0.024 µM | –
6 | 0.156 µM | 0.091 µM | – | – | C=CC(=O)N1C[C@@H]2C(=O)N(C)c3c(c4cc(F)c(-c5c(O)cccc5F)c(F)c4n(-c4c(C)ccnc4C(C)C)c3=O)N2C[C@H]1C [Compound 21A-1] | – | 0.104 µM
7 | – | – | 0.007 µM | 0.003 µM | C=CC(=O)N1C[C@@H]2C(=O)N(C)c3c(c4cc(Cl)c(-c5c(O)cccc5F)c(F)c4n(-c4c(C)ncnc4C(C)C)c3=O)N2C[C@H]1C (atropisomer, axis not shown) [Compound 49A-1] | – | 0.005 µM
8 | 0.228 µM | 0.009 µM | – | – | C=CC(=O)N1C[C@@H]2C(=O)N(C)c3c(c4cc(Cl)c(-c5c(F)cccc5OC)c(F)c4n(-c4c(C)ccnc4C(C)C)c3=O)N2C[C@H]1C [Compound 42A] | 0.009 µM | –
9 | 0.535 µM | 0.077 µM | – | – | C=CC(=O)N1C[C@@H]2CN(CC(=O)OC)c3c(c4cc(F)c(-c5c(O)cccc5F)c(F)c4n(-c4c(C)ccnc4C(C)C)c3=O)N2C[C@H]1C [Compound 38B] | – | 0.064 µM
10 | – | – | 0.252 µM | 0.089 µM | C=CC(=O)N1C[C@@H]2COc3c(c4cc(F)c(-c5c(O)cccc5F)nc4n(-c4c(C)ccnc4C(C)C)c3=O)N2C[C@H]1C (single isomer, unassigned) [Compound 5A] | – | 0.061 µM
11 | 0.004 µM | 0.002 µM | – | – | C=CC(=O)N1C[C@@H]2C(=O)N(C)c3c(c4cc(Cl)c(-c5c(O)cccc5F)c(F)c4n(-c4c(CC)ccnc4C(C)C)c3=O)N2C[C@H]1C [Compound 53A-1] | 0.003 µM | –

The next lines start with the compound.

Row | SMILES | GI50 ([1]; Homo sapiens, MIA PaCa-2, 72 h) | GI50 ([2]; Homo sapiens, NCI-H358, 72 h) | GI50 [1] | GI50 ([2]; NCI-H358, 72 hours) | IC50 ([3]; Homo sapiens, NCI-H358, 2 h) | IC50 [3]
12 | C=CC(=O)N1C[C@@H]2C(=O)N(CCN(C)C)c3c(c4cc(Cl)c(-c5c(F)cccc5OC)nc4n(-c4c(C)ccnc4C(C)C)c3=O)N2C[C@H]1C [Compound 30A] | 0.231 µM | 0.208 µM | – | – | 0.17 µM | –
13 | C=CC(=O)N1C[C@@H]2CN(C)c3c(c4cc(F)c(-c5c(O)cccc5F)nc4n(-c4ccccc4C(C)C)c3=O)N2C[C@H]1C [Compound 10A] | 0.496 µM | 0.184 µM | – | – | 0.063 µM | –
14 | C=CC(=O)N1C[C@@H]2COc3c(c4cc(Cl)c(-c5c(O)cccc5F)c(F)c4n(-c4c(C)ccnc4C(C)C)c3=O)N2C[C@H]1C [Compound 18B-1] | – | – | 0.066 µM | 0.021 µM | – | 0.036 µM
15 | C=CC(=O)N1C[C@@H]2COc3c(c4cc(Cl)c(-c5c(O)cccc5F)c(F)c4n(-c4c(C)ccnc4C(C)C)c3=O)N2C[C@H]1C [Compound 18A] | – | – | 0.013 µM | 0.006 µM | – | 0.005 µM
16 | C=CC(=O)N1C[C@@H]2CN(CCO)c3c(c4cc(F)c(-c5c(O)cccc5F)c(F)c4n(-c4c(C)ccnc4C(C)C)c3=O)N2C[C@H]1C [Compound 36A-1] | 0.235 µM | 0.032 µM | – | – | 0.016 µM | –
17 | C=CC(=O)N1C[C@@H]2COc3c(c4cc(F)c(-c5c(F)cccc5OC)nc4n(-c4c(C)ccnc4C(C)C)c3=O)N2C[C@H]1C (single isomer, unassigned) [Compound 6A] | 0.23 µM | 0.041 µM | – | – | – | 0.065 µM
18 | C=CC(=O)N1C[C@@H]2C(=O)N(C)c3c(c4cc(F)c(-c5c(O)cccc5F)c(F)c4n(-c4c(C)ccnc4C(C)C)c3=O)N2C[C@H]1C [Compound 21A-2] | – | – | 0.034 µM | 0.01 µM | – | 0.015 µM
19 | C=CC(=O)N1C[C@@H]2C(=O)N(C)c3c(c4cc(F)c(-c5c(C)ccc6[nH]nc(N)c56)c(F)c4n(-c4c(C)ccnc4C(C)C)c3=O)N2C[C@H]1C [Compound 28A] | 0.009 µM | 0.007 µM | – | – | 0.006 µM | –
20 | C=CC(=O)N1C[C@@H]2CN(CCCO)c3c(c4cc(F)c(-c5c(O)cccc5F)c(F)c4n(-c4c(C)ccnc4C(C)C)c3=O)N2C[C@H]1C [Compound 35A] | 2.14 µM | – | – | 0.053 µM | – | 0.068 µM
21 | C=CC(=O)N1C[C@@H]2COc3c(c4cc(F)c(-c5c(O)cccc5F)c(F)c4n(-c4c(C)ccnc4C(C)C)c3=O)N2C[C@H]1C [Compound 3B] | – | – | 0.039 µM | 0.008 µM | – | 0.008 µM
22 | C=CC(=O)N1C[C@@H]2COc3c(c4cc(Cl)c(-c5c(O)cccc5F)c(F)c4n(-c4c(C)ccnc4C(C)C)c3=O)N2C[C@H]1C (atropisomer, axis not shown) [Compound 18B] | – | – | 0.468 µM | 0.138 µM | – | 0.151 µM
23 | C=CC(=O)N1C[C@@H]2COc3c(c4cc(F)c(-c5c(O)cccc5F)nc4n(-c4c(C)ccnc4C(C)C)c3=O)N2C[C@H]1C (single isomer, unassigned) [Compound 5B] | – | – | 3.13 µM | 0.21 µM | – | 0.128 µM
24 | C=CC(=O)N1C[C@@H]2CN(C)c3c(c4cc(F)c(-c5c(O)cccc5F)c(F)c4n(-c4c(C)ccnc4C(C)C)c3=O)N2C[C@H]1C (single isomer, unassigned) [Compound 16A] | 0.211 µM | 0.02 µM | – | – | – | 0.017 µM
25 | C=CC(=O)N1C[C@@H]2COc3c(c4cc(F)c(-c5c(O)cccc5F)c(F)c4n(-c4c(C(C)C)ncnc4C(C)C)c3=O)N2C[C@H]1C [Compound 19A] | 0.014 µM | 0.008 µM | – | – | 0.008 µM | –
26 | C=CC(=O)N1C[C@@H]2COc3c(c4cc(F)c(-c5c(O)cccc5F)c(F)c4n(-c4c(C)ccnc4C(C)C)c3=O)N2C[C@H]1C [Compound 3A] | – | – | – | – | – | 0.474 µM
